The record followed here is ChEMBL document CHEMBL1135236, “Synthesis of iodinated 3beta-aryltropanes with selective binding to either the dopamine or serotonin transporters” (Bioorg Med Chem Lett, 2002).

By IC50 is commonly meant the concentration at which inhibition is half-maximal. The low end stands for inhibition by little substance, the high end for a need for much substance. The term Ki denotes a measure of affinity in units of concentration, obtained from inhibition or displacement. Lower therefore signals tighter binding.

In experiment [1] the target is Sodium-dependent dopamine transporter (Rattus norvegicus, UniProt P23977). Nature of the experiment: Tested for the ability to displace [125I]- RTI-55 binding in rat striatal membrane against dopamine transporter. Format: cell membranes, Striatum.
The target of experiment [2] is Sodium-dependent serotonin transporter (Rattus norvegicus, UniProt P31652). Nature of the experiment: Tested for the ability to displace [3H]- paroxetine binding in rat frontal cortex membrane against Serotonin transporter. The class given is cell membranes.
For experiment [3], the target named is Sodium-dependent serotonin transporter (Rattus norvegicus) (UniProt P31652). Description: Ratio of serotonin transporter potency to that of dopamine transporter potency.
Chain of Sodium-dependent serotonin transporter (Rattus norvegicus) (P31652 whole entry): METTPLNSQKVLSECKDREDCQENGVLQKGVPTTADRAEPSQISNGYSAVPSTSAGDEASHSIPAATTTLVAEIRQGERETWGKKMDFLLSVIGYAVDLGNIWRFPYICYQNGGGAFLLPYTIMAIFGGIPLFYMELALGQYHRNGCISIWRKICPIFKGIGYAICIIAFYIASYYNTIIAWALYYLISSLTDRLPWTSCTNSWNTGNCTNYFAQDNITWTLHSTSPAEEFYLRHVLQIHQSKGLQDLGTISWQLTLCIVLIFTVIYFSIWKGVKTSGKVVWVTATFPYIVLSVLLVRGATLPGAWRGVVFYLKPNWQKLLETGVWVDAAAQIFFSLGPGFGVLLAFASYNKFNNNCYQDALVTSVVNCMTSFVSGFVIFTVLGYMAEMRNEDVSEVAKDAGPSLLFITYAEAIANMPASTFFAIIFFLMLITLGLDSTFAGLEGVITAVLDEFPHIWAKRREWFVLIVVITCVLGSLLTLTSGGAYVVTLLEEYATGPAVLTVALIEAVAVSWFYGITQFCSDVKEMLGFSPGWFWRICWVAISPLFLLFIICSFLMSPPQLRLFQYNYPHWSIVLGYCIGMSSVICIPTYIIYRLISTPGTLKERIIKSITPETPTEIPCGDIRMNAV

Chain of Sodium-dependent serotonin transporter (P31652 whole entry): as above
Chain of Sodium-dependent dopamine transporter (P23977 whole entry): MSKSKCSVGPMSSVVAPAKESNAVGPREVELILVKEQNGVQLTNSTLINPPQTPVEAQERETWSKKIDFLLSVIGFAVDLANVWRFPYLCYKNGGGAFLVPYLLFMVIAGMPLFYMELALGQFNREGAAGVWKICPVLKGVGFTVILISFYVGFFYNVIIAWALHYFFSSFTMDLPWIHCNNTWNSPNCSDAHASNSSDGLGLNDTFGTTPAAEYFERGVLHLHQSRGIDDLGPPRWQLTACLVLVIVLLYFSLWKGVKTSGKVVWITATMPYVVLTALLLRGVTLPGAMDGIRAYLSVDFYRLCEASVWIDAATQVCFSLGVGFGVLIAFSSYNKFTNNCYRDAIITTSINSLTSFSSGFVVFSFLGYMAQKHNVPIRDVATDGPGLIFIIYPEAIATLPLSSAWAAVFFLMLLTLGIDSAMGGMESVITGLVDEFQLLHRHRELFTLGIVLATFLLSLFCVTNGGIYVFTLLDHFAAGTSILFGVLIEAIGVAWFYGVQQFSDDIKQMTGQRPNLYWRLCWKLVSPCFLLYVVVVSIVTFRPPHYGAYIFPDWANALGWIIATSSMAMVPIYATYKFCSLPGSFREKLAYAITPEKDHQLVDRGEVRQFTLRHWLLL

Consider `CCC(=O)C1C2CCC(CC1c1ccc(/C=C(/C)I)cc1)N2` (centres undefined), for which the IC50 in experiment [1] was found to be 66.5 nM. The affinity in experiment [2] corresponds to a Ki of 0.13 nM. The Ratio in experiment [3] worked out at 510.

`Cc1ccc(C2CC3CCC(C2C(=O)CC/C=C/I)N3C)cc1` (centres undefined) yielded an IC50 in experiment [1] of 13.3 nM. Moreover, in experiment [2], the Ki came to 50.8 nM. For the same compound, the Ratio in experiment [3] was determined as 0.26.

`CCC(=O)C1C2CCC(CC1c1ccc(/C=C/I)cc1)N2` (centres undefined) displayed a half-maximal inhibitory concentration (IC50) in experiment [1] of 51.3 nM. This compound showed an inhibition constant Ki in experiment [2] of 0.62 nM. In addition, in experiment [3], the Ratio is 83.

As for `CCC(=O)C1C(c2ccc(I)c(Cl)c2)CC2CCC1N2C` (centres undefined), the IC50 in experiment [1] was 0.077 nM. In experiment [2], this compound registered an inhibition constant Ki of 1.14 nM. Besides, in experiment [3], the Ratio stood at 0.067.

In experiment [1], `CCC(=O)C1C(c2ccc(-c3cccn3C)cc2)CC2CCC1N2C/C=C/I` (centres undefined) displayed an IC50 of 753 nM. The affinity in experiment [2] corresponds to a Ki of 2.82 nM. The Ratio in experiment [3] stood at 270.

The compound `CCC(=O)C1C(c2cccc(I)c2)CC2CCC1N2C` (centres undefined) registered an IC50 in experiment [1] of 56.5 nM. This compound yielded an inhibition constant Ki in experiment [2] of 19.7 nM. In addition, the Ratio in experiment [3] was determined as 2.9.

For `CCC(=O)C1C2CCC(CC1c1cccc(I)c1)N2` (centres undefined), the half-inhibitory concentration (IC50) in experiment [1] was found to be 19.8 nM. The compound further came in with a Ki in experiment [2] of 15.7 nM. Further, the Ratio in experiment [3] was 1.3.

Compound `CCC(=O)C1C2CCC(CC1c1ccc(/C=C(\C)I)cc1)N2` (centres undefined) had a half-maximal inhibitory concentration (IC50) in experiment [1] of 401 nM. The compound further gave a Ki in experiment [2] of 0.57 nM. In experiment [3], the Ratio was found to be 710.

Turning to `CCC(=O)C1C2CCC(CC1c1ccc(I)c(F)c1)N2` (centres undefined), the IC50 in experiment [1] was 1.08 nM. In experiment [2], this compound showed an inhibitory constant (Ki) of 7.26 nM. Moreover, the Ratio in experiment [3] is 0.15.

As to `CCC(=O)C1C2CCC(CC1c1ccc(I)cc1)N2` (centres undefined), in experiment [1], the IC50 stood at 2.2 nM. For the same compound, the affinity in experiment [2], expressed as Ki, was 2.44 nM. Also, the Ratio in experiment [3] is 0.9.

`CCC(=O)C1C(c2ccc(I)c(F)c2)CC2CCC1N2C` (centres undefined) yielded an IC50 in experiment [1] of 0.38 nM. Moreover, in experiment [2], the Ki is 9.07 nM. Also, the Ratio in experiment [3] came to 0.041.

For `CCC(=O)C1C(c2ccc(I)cc2)CC2CCC1N2C` (centres undefined), the IC50 in experiment [1] amounted to 1.69 nM. The compound further displayed an inhibition constant Ki in experiment [2] of 1.88 nM. Further, in experiment [3], the Ratio amounted to 0.9.

As for `CCC(=O)C1C(c2ccc(-c3cccn3C)cc2)CC2CCC1N2C/C=C\I` (centres undefined), the IC50 in experiment [1] stood at 1120 nM. Besides, affinity in experiment [2] was put at a Ki of 13.1 nM. In addition, the Ratio in experiment [3] stood at 86.

For the compound `CCC(=O)C1C2CCC(CC1c1ccc(I)c(Cl)c1)N2` (centres undefined), the half-inhibitory concentration (IC50) in experiment [1] was 0.085 nM. This compound had a Ki in experiment [2] of 1.08 nM. Further, the Ratio in experiment [3] stood at 0.079.

In turn, `Cc1ccc([C@H]2CC3CCC([C@H]2C(=O)C(C/C=C/I)C/C=C/I)N3C)cc1` (some centres undefined) displayed a half-maximal inhibitory concentration (IC50) in experiment [1] of 47.2 nM. The compound further gave a Ki in experiment [2] above 1100 nM.
